Consider three compounds from patent US20040097468A1, “Method of treating osteoporosis and other bone disorders with upfront loading of bisphosphonates, and kits for such treatment” (priority 2002, published 2004).

For one experiment, the system named is humans. The experiment in a line: Spinal (vertebral) BMD, loading vs standard doses of bisphosphonates over one year. The experiment is classed as in vivo, human. As to the method:
FIG. 4. illustrates the effects of standard recommended dose of risedronate (35 mg once a week), vs. loading dose of risedronate (for doses, see the section on oral administration of bisphosphonates) on vertebral BMD.
This will then be followed up with once weekly administration (i.e., infrequent administration) of a single dose of similar strength, what is currently used on a longer-term basis.

For a further experiment, the system named is osteoporotic patients. To be noted: intravenous injections 0.5 or 1.0 mg every 3 months for 3 years; cited from earlier work.

For the compound `NCCCC(O)(P(=O)(O)O)P(=O)(O)O` [alendronate, 4-amino-1-hydroxybutylidene-1,1-bisphosphonic acid monosodium trihydrate], the “Increase in spinal BMD” value in the experiment on humans (alendronate loading dose, 3 months) is “+1.2%”; with humans (alendronate loading dose, 6 months), “+3.6%”; in the experiment on humans (alendronate loading dose, 12 months), “+5.8%”; with humans (alendronate standard dose (70 mg once a week), 3 months), “+0.4%”; in the experiment with humans (alendronate standard dose (70 mg once a week), 6 months), “+1.1%”; in the experiment on humans (alendronate standard dose (70 mg once a week), 12 months) it was “+4.5%”.

As for `CCCCCN(C)CCC(O)(P(=O)(O)O)P(=O)(O)O` [ibandronate, 1-hydroxy-3-(N-methyl-N-pentylamino)propylidene-1,1-bisphosphonic acid], in the experiment on osteoporotic patients, the “Change in BMD” value was “moderate increase in BMD” and the “Change in incidence of new osteoporotic fractures” value is on record as “small, but not significant, decrease”.

On to `O=P(O)(O)C(O)(Cc1cccnc1)P(=O)(O)O` [risedronate, 1-hydroxy-2-(3-pyridinyl)-ethylidene-1,1-bisphosphonic acid], for which the “Increase in spinal BMD” value in the experiment on humans (risedronate loading dose, 3 months) was “+1.5%”; in the experiment with humans (risedronate loading dose, 6 months) it was “+4.0%”; with humans (risedronate loading dose, 12 months) it was “+5.6%”; in the experiment with humans (risedronate standard dose (35 mg once a week), 3 months), “+0.4%”; in the experiment on humans (risedronate standard dose (35 mg once a week), 6 months), “+2.2%”; in the experiment on humans (risedronate standard dose (35 mg once a week), 12 months), “+4.3%”.
